These results are taken from ChEMBL document CHEMBL4385659, “Essential structure of orexin 1 receptor antagonist YNT-707, Part IV: The role of D-ring in 4,5-epoxymorphinan on the orexin 1 receptor antagonistic activity” (Bioorg Med Chem Lett, 2019).

Experiment [1] concerns the target T1, Orexin/Hypocretin receptor type 1 (Homo sapiens, UniProt O43613).
T1 sequence (O43613 whole entry): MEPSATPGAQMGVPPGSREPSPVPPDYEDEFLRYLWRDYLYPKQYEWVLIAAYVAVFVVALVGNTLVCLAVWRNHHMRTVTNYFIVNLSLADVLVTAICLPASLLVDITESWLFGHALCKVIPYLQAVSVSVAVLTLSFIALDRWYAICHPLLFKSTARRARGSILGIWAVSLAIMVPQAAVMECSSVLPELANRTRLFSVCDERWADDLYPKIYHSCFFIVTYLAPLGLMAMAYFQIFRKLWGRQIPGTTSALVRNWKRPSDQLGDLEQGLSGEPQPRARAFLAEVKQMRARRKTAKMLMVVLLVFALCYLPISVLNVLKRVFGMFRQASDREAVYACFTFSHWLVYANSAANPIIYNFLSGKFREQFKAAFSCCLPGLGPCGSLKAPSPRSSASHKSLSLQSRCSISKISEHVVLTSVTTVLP
Put plainly: Antagonist activity at human OX1R expressed in CHOK1 cells assessed as inhibition of orexin A-induced intracellular Ca2+ release preincubated for 15 mins followed by orexin A addition by Fura 2-AM dye based fluorescence assay based by Cheng-Prusoff equation analysis. It is filed as functional, cell-based.

Experiment [2] addresses T2, Orexin/Hypocretin receptor type 1 (Homo sapiens) (UniProt O43613).
T2 sequence (whole entry): T1 sequence (O43613 whole entry)
Put plainly: Antagonist activity at human OX1R expressed in CHOK1 cells assessed as inhibition of orexin A-induced intracellular Ca2+ release at 10 uM preincubated for 15 mins followed by orexin A addition by Fura 2-AM dye based fluorescence assay […]. It is filed as functional, cell-based.

For orientation: Ki means the equilibrium dissociation constant of an inhibitor or competing ligand from its target. Regarding `COc1ccc2c3c1O[C@H]1[C@H](N(C)C(=O)/C=C/c4ccoc4)CC[C@](O)([C@@H]31)[C@H](N(CC1CC1)S(=O)(=O)c1ccccc1)C2`, in experiment [1], the inhibition constant Ki was 101 nM.
In general, inhibition refers to the change of the read-out against control, counted positive when it falls. Consider `COc1ccc2c3c1O[C@H]1[C@@H](N(C)C(=O)/C=C/c4ccoc4)CC[C@](O)([C@@H]31)[C@H](N(CC1CC1)S(=O)(=O)c1ccccc1)C2`, for which the inhibition in experiment [2] is 11%.
For `COc1ccc2c3c1O[C@@H]1[C@H]3[C@@H](CC[C@H]1N(C)C(=O)/C=C/c1ccoc1)[C@H](N(CC1CC1)S(=O)(=O)c1ccccc1)C2`, the inhibitory constant (Ki) in experiment [1] stood at 20.9 nM.
On the same count and under the same terms, the value for `COc1ccc2c(c1)[C@H]1C[C@H](N(C)C(=O)/C=C/c3ccoc3)CC[C@@]1(O)[C@H](N(CC1CC1)S(=O)(=O)c1ccccc1)C2` was 842 nM.
